Data as given in patent publication US20070122830A1, “Prohibitin-directed diagnostics and therapeutics for cancer and chemotherapeutic drug resistance” (Aurelium BioPharma Inc., priority 2005, published 2007).
Like-named read-outs stand apart in the source and are kept apart here.

Legend:
Format in all cases: cell-based, human
[1] = system: SKOV3 Ovarian Cancer Cell Line; test: MTT cytotoxicity assay, transfected SKOV3 cells plus chemotherapeutic drug; settings: for IC50: Homo sapiens, SK-OV-3, SKOV3 cells, mock-transfected control, read-out: EC50, Control; for EC50 / fold change of EC50, Prohibitin vs Control: SKOV3 cells; for EC50: prohibitin (siRNA) transfected, read-out: EC50, Prohibitin; for fold change of EC50, Prohibitin vs Control: direction IS/IR in same cell (E54)
Protocol: (§1) For a typical siRNA transfection, 1 nmole of the annealed siRNA duplex was mixed with 1.4 ml of Opti-MEM reagent (Invitrogen). In another tube, […] of Oligofectamine reagent (Invitrogen, Carlsbad, Calif.) was mixed with […] of Opti-MEM. The two solutions were combined and mixed gently by inversion and incubated for 20 min. at RT. The resulting solution was added to the cultured cells drop by drop in a 10 cm dish (cells are approximately 40-50% confluent). The next day the transfected cells were trypsinized and seeded in 6 or 96-well plates and further incubated for the indicated amount of time (assay dependent) before further analysis.
(§2) RNA-transfected cells were seeded in triplicate into 96-well plates at 5×10^3 cells/well 48 hrs post-transfection. The cells were incubated for an additional 16 to 24 hrs before they were exposed to increasing concentrations of cytotoxic drugs. […] Appropriate dilutions were made in the respective media for each cell line. Following addition of drugs, incubation was continued for an additional 72 hrs. […] of MTT dye (5 mg/ml) were added into each well and the plate was further incubated at 37° C. for 4 hrs. The dye was solubilized with 10% Triton X-100, 0.01 N HCl and further incubated at 37° C. in the dark for 30 min. Cell viability was determined by measure of absorption at 570 nm in a Wallac multiwell plate reader (PerkinElmer, Inc., Boston, Mass.). The averages of triplicate wells were plotted using the Prism software (GraphPad Software, Inc., San Diego, Calif.).
Each table summarizes the results of an individual experiment performed in triplicate.

[2] = system: MCF-7 Breast Cancer Cell Line; test: MTT cytotoxicity assay, transfected MCF-7 cells plus chemotherapeutic drug; settings: for sensitivity to drug of prohibitin siRNA treated cells: MCF-7, FIGS. 15A-15H; for EC50: prohibitin (siRNA) transfected, read-out: EC50, Prohibitin; for fold change of EC50, Prohibitin vs Control: direction IS/IR in same cell (E42)
Protocol: as §1
as §2, with “Cell survival was determined using the MTT cytotoxicity assay (see, e.g., Tokuyama et al. (2005) Anticancer Res. 25(1A): 17-22). RNA-transfected” for “RNA-transfected”, “drugs. Doxorubicin (adriamycin), cisplatinum, taxol, vinblastin, vincristin, and mitoxantrone were all purchased from Sigma Corp. (St. Louis, Mo.).” for “drugs.”
Cell survival was determined as described in Example 3 above.

[3] = system: MDA Breast Cancer Cell Line; test: MTT cytotoxicity assay, transfected MDA cells plus chemotherapeutic drug; settings: for IC50: Homo sapiens, mock-transfected control, read-out: EC50, Control; for IC50 / EC50 / fold change of EC50, Prohibitin vs Control: MDA cells; for EC50: prohibitin (siRNA) transfected, read-out: EC50, Prohibitin
Protocol: as §1, §2

[4] = Table 3 experiment, direction IS/IR in same cell (E6)
[5] = Table 4 experiment, direction IS/IR in same cell (E12)
[6] = Table 7 experiment, direction IS/IR in same cell (E30)
[7] = Table 8 experiment, direction IS/IR in same cell (E36)

Row | SMILES | IC50 ([1]; Table 10 experiment) | IC50 ([1]; Table 11 experiment) | EC50 ([1]; Table 10 experiment) | EC50 ([1]; Table 11 experiment) | fold change of EC50, Prohibitin vs Control ([1]; Table 11 experiment) | sensitivity to drug of prohibitin siRNA treated cells [2] | EC50 ([2]; MCF-7 cells, Table 9) | fold change of EC50, Prohibitin vs Control ([2]; MCF-7 cells, Table 9) | IC50 ([3]; Table 3 experiment) | IC50 ([3]; Table 4 experiment) | IC50 ([3]; Table 7 experiment) | IC50 ([3]; Table 8 experiment) | EC50 ([3]; Table 3 experiment) | EC50 ([3]; Table 4 experiment) | EC50 ([3]; Table 7 experiment) | EC50 ([3]; Table 8 experiment) | fold change of EC50, Prohibitin vs Control [3, 4] | fold change of EC50, Prohibitin vs Control [3, 5] | fold change of EC50, Prohibitin vs Control [3, 7] | sensitivity to drug of prohibitin siRNA treated cells compared to mock controls ([3]; MDA, FIGS. 14A-14H) | also measured
1 | O=C1c2c(O)ccc(O)c2C(=O)c2c(NCCNCCO)ccc(NCCNCCO)c21 [Mitoxantrone] | 0.801 nM | 0.147 nM | 0.358 nM | 0.118 nM | 1.2 x | more sensitive | 3.94 nM | 2.2 x | 0.11 nM | 0.0961 nM | 44.1 nM | 40.9 nM | 0.173 nM | 0.409 nM | 27.6 nM | 26.6 nM | 1.6 x | 4.2 x | 1.5 x | more sensitive | fold change of EC50, Prohibitin vs Control [3, 6]: 1.6 x; sensitivity to drug of prohibitin siRNA treated cells compared to mock controls ([3]; MDA, FIGS. 13A-13H): increased the sensitivity
2 | CC(=O)O[C@H]1C(=O)[C@@]2(C)[C@H]([C@H](OC(=O)c3ccccc3)[C@]3(O)C[C@H](OC(=O)[C@H](O)[C@@H](NC(=O)c4ccccc4)c4ccccc4)C(C)=C1C3(C)C)[C@]1(OC(C)=O)CO[C@@H]1C[C@@H]2O [Taxol] | 0.895 nM | 1.82 nM | 0.536 nM | 1.09 nM | 1.7 x | more sensitive | 2.62 nM | 30.0 x | 200 nM | 316 nM | 8.32 nM | 19.2 nM | 515 nM | 301 nM | 4.38 nM | 12.7 nM | 2.6 x |  | 1.5 x | more sensitive | increase in sensitivity to drug as compared to controls ([2]; MCF-7 cells treated with prohibitin siRNA, FIG. 15B): 30 fold; IC50 ([3]; Table 5 experiment): 5.11 nM; IC50 ([3]; Table 6 experiment): 10.8 nM; EC50 ([3]; Table 5 experiment): 6.55 nM; EC50 ([3]; Table 6 experiment): 6.19 nM; fold change of EC50, Prohibitin vs Control ([3]; Table 5 experiment, direction IS/IR in same cell (E18)): 1.3 x; fold change of EC50, Prohibitin vs Control ([3]; Table 6 experiment, direction IS/IR in same cell (E24)): 1.7 x; fold change of EC50, Prohibitin vs Control [3, 6]: 1.9 x; sensitivity to drug of prohibitin siRNA treated cells compared to mock controls ([3]; MDA, FIGS. 12A-12D): increased sensitivity; sensitivity to drug of prohibitin siRNA treated cells compared to mock controls ([3]; MDA, FIGS. 13A-13H): increased the sensitivity
3 | CC[C@]1(O)C[C@H]2CN(CCc3c([nH]c4ccccc34)[C@@](C(=O)OC)(c3cc4c(cc3OC)N(C=O)[C@H]3[C@@](O)(C(=O)OC)[C@H](OC(C)=O)[C@]5(CC)C=CCN6CC[C@]43[C@@H]65)C2)C1 [Vincristin] | 3.75 nM | 3.58 nM | 3.17 nM | 2.53 nM | 1.4 x |  | 350 nM | 2.1 x | 2840 nM | 1480 nM | 12.3 nM | 12.4 nM | 837 nM | 18600 nM |  | 4.3 nM | 3.4 x | 12.5 x | 2.9 x | more sensitive | change in sensitivity to the drug, Prohibitin vs Control ([2]; MCF-7 cells, Table 9): IR (IR: “increased in resistance” to the drug); sensitivity to drug of prohibitin siRNA treated cells compared to mock-treated cells ([3]; MDA, FIG. 9A-9H): increased sensitivity
